Laboratory results: ChEMBL document CHEMBL1201862, “PubChem BioAssay data set” (2004)
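96-well plates; 48 h exposure; 5 concentrations. Endpoints by linear interpolation between flanking doses. Not reached: highest tested concentration assigned. Here, GI50 denotes the concentration required for 50% inhibition of growth.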 The source made the active and inactive calls. Rule as the data show it: active = GI50 up to about 1.1 µM and inactive = higher.

Tests used:
Experiment in all cases: NCI-60 cell line screen, 48 h
[1] = tested on: BT-549
[2] = tested on: CCRF-CEM
[3] = tested on: DU-145
[4] = tested on: HL-60
[5] = tested on: HOP-92
[6] = tested on: KM12
[7] = tested on: MOLT-4
[8] = tested on: NCI-H226
[9] = tested on: NCI-H522
[10] = tested on: OVCAR-3
[11] = tested on: OVCAR-8
[12] = tested on: SF-539
[13] = tested on: SNB-19
[14] = tested on: SNB-75
[15] = tested on: SR
[16] = tested on: UO-31
[17] = tested on: CAKI-1
[18] = tested on: SK-MEL-5
[19] = tested on: TK-10

For `O=[N+]([O-])C(=C(Nc1ccccc1)Nc1ccccc1)/C(Cl)=C(\Cl)Br`, the GI50 [1] was 21.7 µM (inactive), the GI50 [2] was 2.15 µM (inactive) and the GI50 [3] was 16.5 µM (inactive). For the same compound, the GI50 [4] was 1.76 µM (inactive), the GI50 [5] was 17.7 µM (inactive) and the GI50 [6] was 12.3 µM (inactive). The GI50 [7] was 3.1 µM (inactive), the GI50 [8] was 0.671 µM (active) and the GI50 [9] was 2.51 µM (inactive). For the same compound, the GI50 [10] was 5.18 µM (inactive), the GI50 [11] was 16.5 µM (inactive) and the GI50 [12] was 22 µM (inactive). For the same compound, the GI50 [13] was > 10 µM (inactive), the GI50 [14] was 12.4 µM (inactive) and the GI50 [15] was 5.01 µM (inactive). The GI50 [16] was 10.1 µM (inactive).
With `CO/N=C(\C(=O)Nn1cn[n+](CC(=O)[O-])c1)c1csc(N)n1` the GI50 [1] was > 10 µM (inactive), the GI50 [17] was > 10 µM (inactive) and the GI50 [2] was > 10 µM (inactive). For the same compound, the GI50 [3] was > 10 µM (inactive), the GI50 [4] was > 10 µM (inactive) and the GI50 [5] was > 10 µM (inactive). The GI50 [6] was > 10 µM (inactive), the GI50 [7] was > 10 µM (inactive) and the GI50 [11] was > 10 µM (inactive). For the same compound, the GI50 [18] was > 10 µM (inactive), the GI50 [14] was 9.25 µM (inactive) and the GI50 [15] was > 10 µM (inactive). For the same compound, the GI50 [19] was > 10 µM (inactive).
`O=c1c(SSc2coc3cc(F)ccc3c2=O)coc2cc(F)ccc12` was tested, and the GI50 [1] was > 100 µM (inactive), the GI50 [17] was 20.1 µM (inactive) and the GI50 [2] was 3.58 µM (inactive). For the same compound, the GI50 [3] was 47.3 µM (inactive), the GI50 [4] was 8.59 µM (inactive) and the GI50 [6] was 8.95 µM (inactive). The GI50 [7] was 7.31 µM (inactive), the GI50 [8] was > 100 µM (inactive) and the GI50 [9] was 20.7 µM (inactive). The GI50 [10] was 21.6 µM (inactive), the GI50 [11] was 7.78 µM (inactive) and the GI50 [12] was 28.7 µM (inactive). For the same compound, the GI50 [18] was 13.7 µM (inactive), the GI50 [13] was 43.5 µM (inactive) and the GI50 [14] was 11 µM (inactive). For the same compound, the GI50 [15] was 31.3 µM (inactive), the GI50 [19] was 35.2 µM (inactive) and the GI50 [16] was 11.4 µM (inactive).
With `CC(C)CCn1c(=O)c2c(=O)[nH][nH]c2c2ccccc21` the GI50 [1] was > 100 µM (inactive), the GI50 [2] was > 100 µM (inactive) and the GI50 [3] was > 100 µM (inactive). For the same compound, the GI50 [4] was > 100 µM (inactive), the GI50 [5] was > 100 µM (inactive) and the GI50 [6] was > 100 µM (inactive). For the same compound, the GI50 [7] was > 10 µM (inactive), the GI50 [8] was > 100 µM (inactive) and the GI50 [9] was > 100 µM (inactive). The GI50 [10] was > 100 µM (inactive), the GI50 [11] was > 100 µM (inactive) and the GI50 [12] was > 100 µM (inactive). For the same compound, the GI50 [18] was > 100 µM (inactive), the GI50 [13] was > 100 µM (inactive) and the GI50 [14] was > 10 µM (inactive). For the same compound, the GI50 [15] was > 100 µM (inactive), the GI50 [19] was > 100 µM (inactive) and the GI50 [16] was > 100 µM (inactive).
`O=C1/C(=C/c2c(Cl)[nH]c3ccccc23)c2ccccc2N1c1ccccc1` was tested, and the GI50 [1] was 3.29 µM (inactive), the GI50 [17] was 8.3 µM (inactive) and the GI50 [2] was 3.9 µM (inactive). For the same compound, the GI50 [3] was 7.43 µM (inactive), the GI50 [4] was 3.01 µM (inactive) and the GI50 [5] was 9.44 µM (inactive). The GI50 [6] was 3.86 µM (inactive), the GI50 [7] was 4.22 µM (inactive) and the GI50 [9] was 3.05 µM (inactive). The GI50 [10] was 1.79 µM (inactive), the GI50 [11] was 4.35 µM (inactive) and the GI50 [12] was 3.7 µM (inactive). For the same compound, the GI50 [18] was 2.89 µM (inactive), the GI50 [13] was 9.84 µM (inactive) and the GI50 [14] was 6.81 µM (inactive). For the same compound, the GI50 [15] was 3.64 µM (inactive), the GI50 [19] was 11.2 µM (inactive) and the GI50 [16] was 6.46 µM (inactive).
With `COc1ccc2c(c1)[C@@]13CCN4CC5=CCO[C@H]6CC(=O)N2[C@H]1[C@H]6[C@H]5C[C@H]43` the GI50 [1] was > 100 µM (inactive), the GI50 [17] was > 100 µM (inactive) and the GI50 [2] was 88.5 µM (inactive). For the same compound, the GI50 [3] was > 100 µM (inactive), the GI50 [4] was 18.1 µM (inactive) and the GI50 [5] was 95.7 µM (inactive). For the same compound, the GI50 [6] was > 100 µM (inactive), the GI50 [7] was 18.6 µM (inactive) and the GI50 [8] was 0.178 µM (active). The GI50 [9] was 72.3 µM (inactive), the GI50 [10] was > 100 µM (inactive) and the GI50 [11] was 59.2 µM (inactive). The GI50 [12] was > 100 µM (inactive), the GI50 [18] was > 100 µM (inactive) and the GI50 [13] was > 100 µM (inactive). The GI50 [15] was 27.5 µM (inactive), the GI50 [19] was 76.6 µM (inactive) and the GI50 [16] was > 100 µM (inactive).
